Results from US20110171714A1, “CRYSTAL STRUCTURE OF TAK1-TAB1” (VERTEX PHARMACEUTICALS INCORPORATED, priority 2005, published 2011).

How the values were obtained:
[1] = tested on: picryl chloride-induced ear swelling; conditions: picryl chloride-induced ear swelling mouse model; cited from earlier work
[2] = biological target: T1, TAK1 kinase domain (residues I31-Q303) of human transforming growth factor-beta-activated kinase 1, as part … (human, UniProt O43318 31-303); experiment: X-ray crystal structure of the TAK1(I31-Q303)/TAB1(H468-P504) chimera (both parts in one fused chain)
T1 construct: range 31-303; In the crystal this domain is not a separate chain; Its C-terminus (Q303) is fused directly, without linker, to TAB1 H468-P504, giving one polypeptide; It was expressed in baculovirus/Hi5 cells and is unphosphorylated; The N-terminal His6 tag was removed by thrombin; also called TAK1 catalytic kinase domain
T1 sequence (looked up): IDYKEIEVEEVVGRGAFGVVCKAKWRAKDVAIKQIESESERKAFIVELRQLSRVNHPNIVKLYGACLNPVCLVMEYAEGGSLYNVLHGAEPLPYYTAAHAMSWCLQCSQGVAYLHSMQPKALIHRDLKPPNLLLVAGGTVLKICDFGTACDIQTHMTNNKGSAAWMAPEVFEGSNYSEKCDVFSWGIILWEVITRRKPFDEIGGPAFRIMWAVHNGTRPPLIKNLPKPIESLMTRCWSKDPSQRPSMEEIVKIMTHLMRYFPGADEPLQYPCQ

COc1cc(O)c2c(c1)/C=C/C[C@H](O)[C@H](O)C(=O)/C=C\C[C@H](C)OC2=O [5Z-7-oxozeaenol]
effect on inflammation [1]: relieves inflammation

B1: TAB1 segment (residues H468-P504) of human TAK1 binding protein, as part of the TAK1(I31-Q303)/TAB1(H468-P504) chimera (peptide, UniProt Q15750 468-504, looked up)
chain: HSLPPGEDGRVEPYVDFAEFYRLWSVDHGEQSVVTAP
notes: range 468-504; In the crystal this segment is not a separate chain; It is fused directly to the C-terminus of TAK1 I31-Q303; also called Tab1 peptide
binding result [2]: binds
